Measurements from US5883077A, “Inhibitors of factor Xa” (Corvas International, Inc., priority 1993, dated 1999).
Square brackets hold non-standard residues; d marks the D form. Peptide text beside a SMILES is read from it. * marks the point of attachment. d2Nal = N[C@H](Cc1ccc2ccccc2c1)C(=O)O; dPhg = N[C@@H](C(=O)O)c1ccccc1; Boc = CC(C)(C)OC(=O)*

Assays:
Format in all cases: biochemical
[1] = biological target: T1, Human α-thrombin (Homo sapiens, UniProt P00734); assay: Thrombin assay, chromogenic substrate S2238; conditions: 100 times the IC50 for factor Xa divided by the IC50 of thrombin
T1 construct: Human α-thrombin was obtained from Enzyme Research Laboratories, Inc; purchased Enzyme Research Laboratories, Inc
Procedure: (§1) To assay their activities, the compounds of the present invention are dissolved in buffer to give solutions containing concentrations ranging under assay concentrations from 0 to about 100 μM. The enzyme to be tested is then added to a solution containing a specified concentration of the test compound. Then after an incubation period, synthetic substrate for the enzyme being tested is added. The rate of substrate turnover is determined spectrophotometrically. The IC50 of the test compound is determined for each test compound in assays for factor xa, factor XIa, thrombin and tPA. IC50 is that concentration of test compound giving 50% inhibition of the substrate turnover. Percent selectivity is used to indicate selectivity of a compound in inhibiting Factor Xa in comparison with either Factor XIa, thrombin or tPA. Percent selectivity of a particular compound for either Factor XIa, thrombin or tPA refers to a number obtained by dividing the product of one hundred and the IC50 of the compound for Factor Xa by the IC50 of the compound for either Factor XIa, thrombin or tPA.
(§2) The specificity of the peptide aldehydes through was determined in vitro by measurement of their IC50 against factor Xa, factor XIa, thrombin and tissue plasminogen activator (tPA). Peptide aldehyde which has been described in the art was run as a comparison. A specific concentration of enzyme and its substrate were challenged with varying concentrations of inhibitor. IC50 is that concentration of inhibitor giving 50% inhibition of catalytic activity, under the assay conditions. Specific assay procedures used are presented below.
Enzyme activity was determined using as substrate, S2238 (D-phenylalanyl-L-pipecolyl-L-arginine-p-nitroanilide dihydrochloride) which was obtained from Kabi Diagnostica. The substrate was made up in deionized water prior to use.
Human α-thrombin was obtained from Enzyme Research Laboratories, Inc. The enzyme was diluted into TBSA prior to use.
(§3) The assay was run by combining in appropriate wells 50 μL of TBSA, 50 μL of inhibitor in TBSA or TBSA (as negative control) and 50 μL of 4 nM human α-thrombin or TBSA (as background control). After incubating this mixture for 60 minutes at room temperature, 50 μL of 0.24 mM S-2238 was added to each well and the initial rate of the change of optical density at 405 nm (OD405nm) for each well was determined. OD405nm was measured every 10 seconds for 5 minutes.

[2] = biological target: T2, Human recombinant t-PA (Activase®) (Homo sapiens, UniProt P00750); assay: tPA assay, chromogenic substrate Pefachrome tPA; conditions: 100 times the IC50 for factor Xa divided by the IC50 of tPA
T2 construct: purchased Genentech, Inc
Procedure: as §1, §2
Enzyme activity was determined using as substrate, Pefachrome tPA (O-methylsulfonate-D-hexahydrotyrosine-L-glycyl-L-argini ne-p-nit roanilide acetate salt) which was obtained from Centerchem, Inc. The substrate was made up in deionized water prior to use.
Human recombinant t-PA (Activase®) was obtained from Genentech, Inc. The enzyme was reconstituted with water, then diluted into TBSA prior to use.
as §3, with “recombinant tPA” for “α-thrombin”, “4” for “0.24”, “Pefachrome tPA” for “S-2238”

[3] = biological target: T3, Human factor Xa (Homo sapiens, UniProt P00742); assay: Factor Xa assay, chromogenic substrate S2765; conditions: taken as 100 for each inhibitor by definition
T3 construct: purchased Enzyme Research Laboratories
Procedure: as §1, §2
Enzyme activity was determined using as substrate, S2765 (N-α-benzyloxycarbonyl-D-argininyl-L-glycyl-L-arginine-p-nitroanilide dihydrochloride) which was obtained from Kabi Diagnostica. The substrate was made up in deionized water prior to use.
Human factor Xa was obtained from Enzyme Research Laboratories. The enzyme was diluted into TBSA prior to use.
(§4) The assay was run by combining in appropriate wells 50 μL of TBSA, 50 μL of inhibitor in TBSA or TBSA (as negative control) and 50 μL of 2 nM human Factor Xa or TBSA (as background control). After incubating this mixture for 60 minutes at room temperature, 50 μL of 1 mM S-2765 was added to each well and the initial rate of the change of the optical density at 405 nm (OD405nm) for each well was determined. OD405nm was measured every 10 seconds for 5 minutes.

[4] = biological target: T4, Human factor XIa (Homo sapiens, UniProt P03951); assay: Factor XIa assay, chromogenic substrate S2366; conditions: 100 times the IC50 for factor Xa divided by the IC50 of factor XIa
T4 construct: purchased Enzyme Research Laboratories, Inc
Procedure: as §1, §2
Enzyme activity was determined using as substrate, S2366 (L-pyroglutamyl-L-prolyl-L-arginine-p-nitroanilide hydrochloride) which was obtained from Kabi Diagnostica. The substrate was made up in deionized water prior to use.
Human factor XIa was obtained from Enzyme Research Laboratories, Inc. The enzyme was diluted into TBSA prior to use.
as §4, with “Factor XIa” for “Factor Xa”, “of 6” for “of 1”, “mM S-2366” for “mM S-2765”

T4 sequence (P03951 388-625 limits assumed): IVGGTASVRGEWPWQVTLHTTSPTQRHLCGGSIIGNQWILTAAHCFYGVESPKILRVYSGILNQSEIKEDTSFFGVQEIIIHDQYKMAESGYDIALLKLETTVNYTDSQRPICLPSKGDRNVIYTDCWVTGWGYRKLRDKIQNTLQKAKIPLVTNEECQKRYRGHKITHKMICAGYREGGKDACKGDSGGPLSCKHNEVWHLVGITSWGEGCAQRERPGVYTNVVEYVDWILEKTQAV
T4 sequence (P03951 19-387 partner limits assumed): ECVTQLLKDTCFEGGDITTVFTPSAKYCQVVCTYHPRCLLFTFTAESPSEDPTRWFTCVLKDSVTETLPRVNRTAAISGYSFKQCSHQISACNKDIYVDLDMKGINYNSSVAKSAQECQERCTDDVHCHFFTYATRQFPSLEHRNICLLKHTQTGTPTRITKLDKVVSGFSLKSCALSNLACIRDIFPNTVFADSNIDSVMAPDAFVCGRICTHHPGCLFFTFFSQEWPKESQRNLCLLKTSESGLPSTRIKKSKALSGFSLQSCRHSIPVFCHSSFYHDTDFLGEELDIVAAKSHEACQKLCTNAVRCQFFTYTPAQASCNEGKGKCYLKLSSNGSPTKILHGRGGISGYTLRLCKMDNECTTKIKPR
T2 sequence (P00750 36-562): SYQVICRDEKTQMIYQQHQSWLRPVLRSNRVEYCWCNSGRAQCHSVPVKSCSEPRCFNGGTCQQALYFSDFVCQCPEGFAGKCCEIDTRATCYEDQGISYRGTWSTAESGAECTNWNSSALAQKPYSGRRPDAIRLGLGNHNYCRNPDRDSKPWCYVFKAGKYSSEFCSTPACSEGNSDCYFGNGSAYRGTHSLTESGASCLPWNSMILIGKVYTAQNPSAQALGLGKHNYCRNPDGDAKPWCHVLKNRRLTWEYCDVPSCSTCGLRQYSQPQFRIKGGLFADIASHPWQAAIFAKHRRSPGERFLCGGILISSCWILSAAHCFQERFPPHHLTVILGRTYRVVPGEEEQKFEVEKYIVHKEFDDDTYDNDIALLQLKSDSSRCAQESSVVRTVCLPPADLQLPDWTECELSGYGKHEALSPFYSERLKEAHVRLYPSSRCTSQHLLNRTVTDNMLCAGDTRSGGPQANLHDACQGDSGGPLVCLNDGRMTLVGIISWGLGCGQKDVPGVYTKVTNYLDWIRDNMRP
T3 sequence (P00742 235-488 limits assumed): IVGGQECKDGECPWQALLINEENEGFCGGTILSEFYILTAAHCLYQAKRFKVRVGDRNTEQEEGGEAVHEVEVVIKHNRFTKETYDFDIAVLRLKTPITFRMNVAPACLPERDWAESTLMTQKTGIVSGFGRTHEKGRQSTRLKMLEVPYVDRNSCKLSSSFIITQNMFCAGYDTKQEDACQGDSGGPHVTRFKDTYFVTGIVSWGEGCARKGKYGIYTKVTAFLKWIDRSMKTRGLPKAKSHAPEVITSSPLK
T3 sequence (P00742 41-179 partner limits assumed): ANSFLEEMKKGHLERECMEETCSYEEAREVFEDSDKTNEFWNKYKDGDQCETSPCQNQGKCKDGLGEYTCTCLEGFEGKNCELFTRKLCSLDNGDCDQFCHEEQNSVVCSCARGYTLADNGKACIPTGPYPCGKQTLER

| SMILES | Percent Selectivity Thrombin [1] | Percent Selectivity tPA [2] | Percent Selectivity Xa [3] | Percent Selectivity XIa [4] |
| --- | --- | --- | --- | --- |
| CC(C)(C)OC(=O)N[C@H](Cc1ccccc1)C(=O)N1CC[C@H](c2ccccc2)[C@H]1C(=O)N[C@H](C=O)CCCNC(=N)N (relative stereo) [[10], N-t-butoxycarbonyl-D-phenylalanyl-L-(3-trans-phenyl)prolinyl-L-argininal] | < 2.5 | < 2.5 | 100 | < 2.5 |
| CC(C)(C)OC(=O)N[C@H](Cc1ccc2ccccc2c1)C(=O)N[C@@H](Cc1ccccc1)C(=O)N[C@H](C=O)CCCNC(=N)N [[1], N-t-butoxycarbonyl-D-3-(2-naphthyl)alanyl-L-phenylalanyl-L-araininal] (Boc-[d2Nal]-Phe-Arg-aldehyde) | 1.6 | < 0.9 | 100 | 1.4 |
| CC(C)(C)OC(=O)N[C@@H](C(=O)N[C@@H](Cc1ccccc1)C(=O)N[C@H](C=O)CCCNC(=N)N)c1ccccc1 [[2], N-t-butoxycarbonyl-D-2-phenylglycyl-L-phenylalanyl-L-araininal] (Boc-[dPhg]-Phe-Arg-aldehyde) | < 2.6 | < 2.6 | 100 | 4.9 |
| CC(C)(C)OC(=O)N[C@H](Cc1ccccc1)C(=O)N[C@@H](Cc1ccccc1)C(=O)N[C@H](C=O)CCCNC(=N)N [[4], N-t-butoxycarbonyl-D-phenylalanyl-L-phenylalanyl-L-argininal] (Boc-[dF]-Phe-Arg-aldehyde) | < 0.8 | < 0.8 | 100 | 0.8 |
| CC(C)(C)OC(=O)NC(C(=O)N[C@@H](Cc1cccc2ccccc12)C(=O)N[C@H](C=O)CCCNC(=N)N)c1ccc(-c2ccccc2)cc1 (stereo partly drawn) [[7], N-t-butoxycarbonyl-D,L-(α-biphenyl)qlycyl-L-3-(1-naphthyl)alanyl-L-argininal] | < 10 | < 10 | 100 | < 10 |
